From patent publication US20160244411A1, “TAU IMAGING PROBE” (CLINO LTD., priority 2013, published 2016)
Read-outs that look alike come from different tables or passages of the source.

What was measured:
[1] = biological target: AD brain tissue homogenates (Homo sapiens, UniProt P10636); assay: Competitive binding test using [3H]THK-5117 as radio ligand with AD brain tissue homogenates; conditions: 2 nM [3H]THK-5117, 100 μg homogenate, 3 hours room temperature
Experimental: Binding Experiment (1) with AD Brain Tissue Homogenates Competitive Binding Test Using [^3H]THK-5117 as Radio Ligand
PBS (0.1% BSA) was used as an assay buffer, and the concentration of TI-IK-5105S or THK-5105R was adjusted with 2 nM [^3H] THK-5117 to 10^−5 to 10^−10 M in a reaction system (200 μL) containing 100 μg of the homogenates, and the competitive tests were then carried out. A nonspecific binding was measured with 2 μM of THK-5117. After incubation at room temperature for 3 hours, a glass filter plate was used to separate [^3H]THK-5117 bound to the homogenates and unbound [^3H] THK-5117, and the filter plate was washed, and then to the separated filter was added liquid scintillation cocktail, and the bound radioactivity was measured on a liquid scintillation counter. The data was analyzed by analysis software GraphPad Prism (Ver. 5). The competitive tests were carried out similarly on THK-5117S, THK-5117R, THK-5151S, and THK-5151R.

amyloid β (Aβ) = assay: Tissue binding test with 10 AD homogenate samples, correlation with Aβ concentration; parameters: species or system human; conditions: 1 nM probe, 100 μg tissue, 1 hour incubation
Experimental: (§1) Binding Experiment (2) with AD Brain Tissue Homogenates Organization Binding Evaluation Experiment of [^18F]THK-5105S
(§2) According to the above-mentioned assay buffer, nonspecific binding measurement, and filter separation operation, using 10 kinds of AD homogenate samples each having different tau concentration and amyloid β (Aβ) concentration, the reaction system was adjusted such that the tissue concentration was made 100 μg and [^18F]THK-5105S concentration was made 1 nM, and the binding test (1 hour incubation) was carried out in the reaction system.
(§3) As comparative example, the binding test was carried out also on [^18F]THK-5105R according to the similar method. The tau concentration or Aβ concentration was plotted on horizontal axis […], and the bound amount of [^18F]THK-5105S and [^18F]THK-5105R was plotted on vertical axis, and the correlation thereof was evaluated.
(§4) This means that when imaging, [^18F]THK-5105S can be detected the change of the tau concentration more sensitively.

[2] = Dynamic evaluation of normal mouse brain by small animal PET; format: in vivo, ICR mouse
Experimental: For experiments in small animal PET (evaluation of its brain delivery), Polysorbate 80 was added to the ethanol-eluted fraction, from which the ethanol was removed using an evaporator. The [^18F] THK-5105S containing radioactive residue within the flask was dissolved in physiological saline and the solution prepared was used as a solution for injection.
In this experiment, […] was administered intravenously via tail to ICR mouse (male 6 to 7 weeks old) under isoflurane anesthesia (1.5%), and the time-change of radioactivity distribution in brain was measured on Clairvivopet/CT (manufactured by Shimadzu Corporation, Kyoto). The emission scan was started simultaneously with the administration of the probe, and measured in 3D list mode for 120 min. After imaging, 35 frames (10×60 s, 10×120 s, […]) were reconstructed, and a region of interest was set in the brain, and quantified as SUV, and a time-activity curve (TAC) was created, and the Dynamism of the both probes were compared.
THK-5105R. In order to compare the disappearance change, the peak values of the TAC for both probes were converted into 100%, and the TAC was then shown as FIG. 7B. As evident from the TACs, [^18F]THK-51055 has larger ratio of disappearance per hour than [^18F]THK-5105R, that is, has more rapid rate of disappearance.
THK-5105R, and can therefore detect tau lesion with more excellent selectivity.

tau = assay: Tissue binding test with 10 AD homogenate samples, correlation with tau concentration; parameters: species or system human; conditions: 1 nM probe, 100 μg tissue, 1 hour incubation, in comparison with [18F]THK-5105R
Experimental: as §1, §2, §3, §4

tau lesion region = assay: Autoradiography of hippocampus sections of an Alzheimer's disease patient; format: binding, human; conditions: AD hippocampus section, about 400 μCi/ml, in comparison with the corresponding R-form
Experimental: A brain specimen in hippocampus of the patient which was definitively-diagnosed as Alzheimer's disease pathologically was used. A paraffin-embedded brain tissue was sliced by 6 μm or 8 μm thick, and stretched on a glass slide, and dried. The paraffin brain sections were deparaffinized by washing sequentially with xylene 10 min.×2, 100% ethanol 5 min.×2, 90% ethanol 5 min., and flowing water 10 min. After deparaffinization, the sections were immersed in PBS. Each of about 400 μCi/ml of [^18F]THK-5105S and [^18F]THK-5105R was added dropwise to the sections, and the sections were allowed to a reaction at room temperature for 10 min. Thereafter, the sections were immersed in distilled water for 2 min., and successively, shaked lightly in 50% EtOH for 2 min., and thereafter immersed in distilled water for 2 min. again, and dried on paraffin stretching plate. Then, the sections were contacted with imaging plate, and allowed to stand overnight, and on next day, the imaging was read on BAS5000 (manufactured by FUJIFILM Holdings Corporation).
The autoradiography experiments were also carried out similarly on [^18F]THK-5151S and [^18F]THK-5151R.
THK-5105R and [^18F] THK-5151R in tau lesion region, which means that they binds more strongly to tau pathology.

[3] = test system: AD hippocampus tissue homogenate (tau lesion); assay: Saturation binding experiment with AD hippocampus tissue homogenate; parameters: species or system human; conditions: 0.1 to 100 nM
Experimental: Further, according to the above-mentioned assay buffer, nonspecific binding measurement, and filter separation operation, each saturation binding experiment of [^18F]THK-5151S and [^18F]THK-5151R was carried out with AD hippocampus tissue homogenate. Zero point one (0.1) to 100 nM of each tested substance was incubated with hippocampus homogenate, and then filtered with a filter, washed, and then measured radioactivity supplemented by the filter, and thereby calculated as total binding and nonspecific binding at each concentration. The data was analyzed with GraphPad Prism (Ver. 5) to calculate binding dissociation constants Kd and Bmax. The binding curve of the results and the analysis results are shown as FIG. 6c.

[4] = Dynamic evaluation of normal mouse brain by biodistribution method; format: in vivo, ICR mouse
Experimental: A saline comprising [^18F]THK-5105S or [18F]THK-5105R was administered intravenously via tail to ICR mouse (male 6 to 7 weeks old), and the time change of radioactivity distribution in brain was measured on Clairvivopet/CT (manufactured by Shimadzu Corporation, Kyoto). The brain dynamics was evaluated by the time-change of the accumulation rate of radioactivity in brain tissue after 2 min., 10 min., 30 min., 60 min., and 120 min.
The accumulation rate of radioactivity was calculated as the ratio of radioactivity per weight of evaluated tissue against total administered radioactivity (% Injected Dose/g of tissue; % ID/g). The measurement of the radioactivity was carried out with Gamma counter (Accuflex γ7000, measured by Hitachi-Aloka Medical, Tokyo). The experimental procedure was as follows. After administering the label compound intravenously via tail at 2 min., 10 min., 30 min., 60 min., and 120 min., cervical dislocation of mouse was performed under ether anesthesia, and organ tissues were extracted. The radioactivity and the weight of each sample were measured, and the data was analyzed to calculate % ID/g. Also, as the evaluation index for the disappearance from the brain, the divided value of the accumulation rate at 2 min. after administration by the accumulation rate at 60 min. after administration (2 min./60 min. ratio) was calculated.

[5] = read-out: Ki Entorhinal cortex 601 pmol/g tissue
[6] = read-out: Ki Temporal lobe cortex (607.6 pmol/g tissue)
[7] = intravenous via tail, in comparison with [18F]THK-5105R

AD brain tissue homogenates, sequence (P10636 623-695 limits assumed): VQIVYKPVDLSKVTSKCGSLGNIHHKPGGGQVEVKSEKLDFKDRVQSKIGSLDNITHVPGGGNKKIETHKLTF

CN(C)c1ccc(-c2ccc3cc(OC[C@@H](O)CF)ccc3n2)cc1 [THK-5105R, reference compound]
Ki [1, 5]: 27.4 nM
Ki [1, 6]: 16.3 nM

CN(C)c1ccc(-c2ccc3cc(OC[C@H](O)CF)ccc3n2)cc1 [THK-5105S]
Ki [1, 5]: 4.6 nM
Ki [1, 6]: 2.6 nM

CNc1ccc(-c2ccc3cc(OCC(O)CF)ccc3n2)cc1 (centres unmarked) [THK-5117R, reference compound]
Ki [1, 6]: 25.7 ± 10.7 nM

CNc1ccc(-c2ccc3cc(OC[C@H](O)CF)ccc3n2)cc1 [THK-5117S]
Ki [1, 6]: 9.4 ± 4.8 nM

CNc1ccc(-c2ccc3cc(OC[C@H](O)CF)ccc3n2)cn1 [THK-5151S]
Ki [1, 6]: 7.2 ± 1.27 nM

CN(C)c1ccc(-c2ccc3cc(OCC(O)C[18F])ccc3n2)cc1 (centres unmarked) [[^18F]THK-5105R, reference compound]
correlation of tissue bound amount with the Aβ concentration (amyloid β (Aβ)): could not be found to have a correlation with the Aβ concentration
SUV Ratio 5 min./30 min. ([2]; brain, intravenous via tail): 1.92 ± 0.3
SUV Ratio 5 min./60 min. ([2]; brain, intravenous via tail): 3.67 ± 0.9
SUV Ratio 5 min./120 min. ([2]; brain, intravenous via tail): 7.75 ± 1.6

CN(C)c1ccc(-c2ccc3cc(OC[C@H](O)CF)ccc3n2)cc1 [[^18F]THK-5105S]
correlation of tissue bound amount with the tau concentration (tau): extremely higher correlation with the tau concentration
tissue bound amount (tau): higher bound amount
correlation of tissue bound amount with the Aβ concentration (amyloid β (Aβ)): could not be found to have a correlation with the Aβ concentration
SUV ratios 5 min./30 min., 5 min./60 min., 5 min./120 min. compared between probes ([2]; brain, in comparison with [18F]THK-5105R): significantly higher value
SUV Ratio 5 min./30 min. ([2]; brain, intravenous via tail): 2.70 ± 0.1
SUV Ratio 5 min./60 min. ([2]; brain, intravenous via tail): 6.27 ± 0.6
SUV Ratio 5 min./120 min. ([2]; brain, intravenous via tail): 19.2 ± 4.4
disappearance from normal brain tissue (time-activity curve) [2, 7]: disappeared more rapidly from normal brain tissue
retention into the normal brain tissue [2, 7]: lower retention into the normal brain tissue

CN(C)c1ccc(-c2ccc3cc(OC[C@H](O)C[18F])ccc3n2)cc1 [[^18F]THK-5105S]
autoradiography imaging signal in tau lesion region (tau lesion region): stronger imaging signal

CNc1ccc(-c2ccc3cc(OC[C@H](O)CF)ccc3n2)cn1 [[^18F]THK-5151S]
autoradiography imaging signal in tau lesion region (tau lesion region): stronger imaging signal
Bmax/Kd value as bonding potential in comparison with [18F]THK-5151R [3]: about fourth times large Bmax/Kd value
Kd value in comparison with [18F]THK-5151R [3]: about one tenth small Kd value
accumulation rate of radioactivity in brain, 2 min. ([4]; 2 min. after intravenous administration, n = 4): 4.36 ± 0.19 % ID/g
accumulation rate of radioactivity in brain, 10 min. ([4]; 10 min. after intravenous administration, n = 4): 1.10 ± 0.19 % ID/g
accumulation rate of radioactivity in brain, 30 min. ([4]; 30 min. after intravenous administration, n = 4): 0.21 ± 0.03 % ID/g
accumulation rate of radioactivity in brain, 60 min. ([4]; 60 min. after intravenous administration, n = 4): 0.13 ± 0.03 % ID/g
accumulation rate of radioactivity in brain, 120 min. ([4]; 120 min. after intravenous administration, n = 4): 0.12 ± 0.02 % ID/g
2 min./60 min. ratio ([4]; brain accumulation rate at 2 min. divided by that at 60 min.): 33
accumulation rate value after the initial uptake, compared between probes ([4]; in comparison with [18F]THK-5151R): lower values
brain uptake shortly after administration ([4]; shortly after administration): about 4 % ID/g
